Source: ChEMBL document CHEMBL4251634, “Synthesis and antimicrobial activity of pyrimidinyl 1,3,4-oxadiazoles, 1,3,4-thiadiazoles and 1,2,4-triazoles” (2018)

Key:
Format in all cases: functional
[1] = test system: Klebsiella pneumoniae; test: Antibacterial activity against Klebsiella pneumoniae after 24 hrs by turbidity-based broth dilution assay
[2] = test system: Bacillus subtilis; test: Antibacterial activity against Bacillus subtilis assessed as diameter of inhibition zone at 100 ug/well after 24 hrs by agar well diffusion method; conditions: read-out: DIZ
[3] = test system: Bacillus subtilis; test: Antibacterial activity against Bacillus subtilis assessed as diameter of inhibition zone at 12.5 ug/well after 24 hrs by agar well diffusion method; conditions: read-out: DIZ
[4] = test system: Penicillium chrysogenum; test: Antifungal activity against Penicillium chrysogenum assessed as diameter of inhibition zone at 50 ug/well after 48 hrs by agar well diffusion method; conditions: read-out: DIZ
[5] = test system: Aspergillus niger; test: Ratio of MFC to MIC for Aspergillus niger
[6] = test system: Klebsiella pneumoniae; test: Antibacterial activity against Klebsiella pneumoniae assessed as diameter of inhibition zone at 50 ug/well after 24 hrs by agar well diffusion method; conditions: read-out: DIZ
[7] = test system: Aspergillus niger; test: Antifungal activity against Aspergillus niger assessed as diameter of inhibition zone at 25 ug/well after 48 hrs by agar well diffusion method; conditions: read-out: DIZ
[8] = test system: Penicillium chrysogenum; test: Antifungal activity against Penicillium chrysogenum assessed as diameter of inhibition zone at 25 ug/well after 48 hrs by agar well diffusion method; conditions: read-out: DIZ
[9] = test system: Aspergillus niger; test: Fungicidal activity against Aspergillus niger incubated for 48 hrs followed by regrowth on PDA plates for 48 hrs
[10] = test system: Bacillus subtilis; test: Bactericidal activity against Bacillus subtilis incubated for 24 hrs followed by regrowth on sterile nutrient broth for 24 hrs; parameters: unit not given here
[11] = test system: Klebsiella pneumoniae; test: Bactericidal activity against Klebsiella pneumoniae incubated for 24 hrs followed by regrowth on sterile nutrient broth for 24 hrs
[12] = test system: Staphylococcus aureus; test: Bactericidal activity against Staphylococcus aureus incubated for 24 hrs followed by regrowth on sterile nutrient broth for 24 hrs
[13] = test system: Staphylococcus aureus; test: Antibacterial activity against Staphylococcus aureus assessed as diameter of inhibition zone at 12.5 ug/well after 24 hrs by agar well diffusion method; conditions: read-out: DIZ
[14] = test system: Pseudomonas aeruginosa; test: Antibacterial activity against Pseudomonas aeruginosa assessed as diameter of inhibition zone at 50 ug/well after 24 hrs by agar well diffusion method; conditions: read-out: DIZ
[15] = test system: Penicillium chrysogenum; test: Fungicidal activity against Penicillium chrysogenum incubated for 48 hrs followed by regrowth on PDA plates for 48 hrs
[16] = test system: Pseudomonas aeruginosa; test: Antibacterial activity against Pseudomonas aeruginosa assessed as diameter of inhibition zone at 12.5 ug/well after 24 hrs by agar well diffusion method; conditions: read-out: DIZ
[17] = test system: Aspergillus niger; test: Antifungal activity against Aspergillus niger assessed as diameter of inhibition zone at 12.5 ug/well after 48 hrs by agar well diffusion method; conditions: read-out: DIZ
[18] = test system: Penicillium chrysogenum; test: Antifungal activity against Penicillium chrysogenum assessed as diameter of inhibition zone at 100 ug/well after 48 hrs by agar well diffusion method; conditions: read-out: DIZ
[19] = test system: Pseudomonas aeruginosa; test: Antibacterial activity against Pseudomonas aeruginosa after 24 hrs by turbidity-based broth dilution assay
[20] = test system: Aspergillus niger; test: Antifungal activity against Aspergillus niger assessed as diameter of inhibition zone at 100 ug/well after 48 hrs by agar well diffusion method; conditions: read-out: DIZ
[21] = test system: Aspergillus niger; test: Antifungal activity against Aspergillus niger assessed as diameter of inhibition zone at 50 ug/well after 48 hrs by agar well diffusion method; conditions: read-out: DIZ
[22] = test system: Staphylococcus aureus; test: Antibacterial activity against Staphylococcus aureus after 24 hrs by turbidity-based broth dilution assay
[23] = test system: Staphylococcus aureus; test: Antibacterial activity against Staphylococcus aureus assessed as diameter of inhibition zone at 50 ug/well after 24 hrs by agar well diffusion method; conditions: read-out: DIZ
[24] = test system: Klebsiella pneumoniae; test: Antibacterial activity against Klebsiella pneumoniae assessed as diameter of inhibition zone at 100 ug/well after 24 hrs by agar well diffusion method; conditions: read-out: DIZ
[25] = test system: Penicillium chrysogenum; test: Antifungal activity against Penicillium chrysogenum assessed as diameter of inhibition zone at 12.5 ug/well after 48 hrs by agar well diffusion method; conditions: read-out: DIZ
[26] = test system: Klebsiella pneumoniae; test: Antibacterial activity against Klebsiella pneumoniae assessed as diameter of inhibition zone at 25 ug/well after 24 hrs by agar well diffusion method; conditions: read-out: DIZ
[27] = test system: Penicillium chrysogenum; test: Antifungal activity against Penicillium chrysogenum after 48 hrs by turbidity-based broth dilution assay
[28] = test system: Staphylococcus aureus; test: Antibacterial activity against Staphylococcus aureus assessed as diameter of inhibition zone at 100 ug/well after 24 hrs by agar well diffusion method; conditions: read-out: DIZ
[29] = test system: Pseudomonas aeruginosa; test: Antibacterial activity against Pseudomonas aeruginosa assessed as diameter of inhibition zone at 25 ug/well after 24 hrs by agar well diffusion method; conditions: read-out: DIZ
[30] = test system: Pseudomonas aeruginosa; test: Bactericidal activity against Pseudomonas aeruginosa incubated for 24 hrs followed by regrowth on sterile nutrient broth for 24 hrs
[31] = test system: Bacillus subtilis; test: Antibacterial activity against Bacillus subtilis assessed as diameter of inhibition zone at 25 ug/well after 24 hrs by agar well diffusion method; conditions: read-out: DIZ
[32] = test system: Aspergillus niger; test: Antifungal activity against Aspergillus niger after 48 hrs by turbidity-based broth dilution assay
[33] = test system: Pseudomonas aeruginosa; test: Antibacterial activity against Pseudomonas aeruginosa assessed as diameter of inhibition zone at 100 ug/well after 24 hrs by agar well diffusion method; conditions: read-out: DIZ
[34] = test system: Bacillus subtilis; test: Antibacterial activity against Bacillus subtilis assessed as diameter of inhibition zone at 50 ug/well after 24 hrs by agar well diffusion method; conditions: read-out: DIZ
[35] = test system: Klebsiella pneumoniae; test: Antibacterial activity against Klebsiella pneumoniae assessed as diameter of inhibition zone at 12.5 ug/well after 24 hrs by agar well diffusion method; conditions: read-out: DIZ
[36] = test system: Staphylococcus aureus; test: Antibacterial activity against Staphylococcus aureus assessed as diameter of inhibition zone at 25 ug/well after 24 hrs by agar well diffusion method; conditions: read-out: DIZ
[37] = test system: Pseudomonas aeruginosa; test: Ratio of MBC to MIC for Pseudomonas aeruginosa

SMILES	MIC [1] [µg]	zone of inhibition at 100 µg/disc [2] [mm]	zone of inhibition at 12.5 µg/disc [3] [mm]	zone of inhibition at 50 µg/disc [4] [mm]	zone of inhibition at 50 µg/disc [6] [mm]	zone of inhibition at 25 µg/disc [7] [mm]	zone of inhibition at 25 µg/disc [8] [mm]	MFC [9] [µg]	MBC [10]	MBC [11] [µg]	MBC [12] [µg]	zone of inhibition at 12.5 µg/disc [13] [mm]	zone of inhibition at 50 µg/disc [14] [mm]	MFC [15] [µg]	zone of inhibition at 12.5 µg/disc [16] [mm]	zone of inhibition at 12.5 µg/disc [17] [mm]	zone of inhibition at 100 µg/disc [18] [mm]	MIC [19] [µg]	zone of inhibition at 100 µg/disc [20] [mm]	zone of inhibition at 50 µg/disc [21] [mm]	other results
Cc1cc(SCc2nnc(-c3ccc(Cl)cc3)n2N)nc(SCc2nnc(-c3ccc(Cl)cc3)n2N)n1	25	24	16	25	26	33	23	12.5	200	100	>200	10	24	100	18	32	29	25	38	35	Ratio [5]: 2; MIC [22]: 100 µg; zone of inhibition at 50 µg/disc [23]: 13 mm; zone of inhibition at 100 µg/disc [24]: 29 mm; zone of inhibition at 12.5 µg/disc [25]: 21 mm; zone of inhibition at 25 µg/disc [26]: 24 mm; MIC [27]: 25 µg; zone of inhibition at 100 µg/disc [28]: 15 mm; zone of inhibition at 25 µg/disc [29]: 21 mm; MBC [30]: 100 µg; zone of inhibition at 25 µg/disc [31]: 18 mm; MIC [32]: 6.25 µg; zone of inhibition at 100 µg/disc [33]: 27 mm; zone of inhibition at 50 µg/disc [34]: 20 mm; zone of inhibition at 12.5 µg/disc [35]: 22 mm; zone of inhibition at 25 µg/disc [36]: 11 mm
Cc1cc(SCc2nnc(-c3ccc([N+](=O)[O-])cc3)n2N)nc(SCc2nnc(-c3ccc([N+](=O)[O-])cc3)n2N)n1	25	26	18	27	29	35	25	12.5	200	100	>200	13	28	100	23	33	31	12.5	40	37	Ratio [5]: 2; MIC [22]: 100 µg; zone of inhibition at 50 µg/disc [23]: 17 mm; zone of inhibition at 100 µg/disc [24]: 32 mm; zone of inhibition at 12.5 µg/disc [25]: 23 mm; zone of inhibition at 25 µg/disc [26]: 27 mm; MIC [27]: 25 µg; zone of inhibition at 100 µg/disc [28]: 19 mm; zone of inhibition at 25 µg/disc [29]: 26 mm; MBC [30]: 50 µg; zone of inhibition at 25 µg/disc [31]: 20 mm; MIC [32]: 6.25 µg; zone of inhibition at 100 µg/disc [33]: 31 mm; zone of inhibition at 50 µg/disc [34]: 22 mm; zone of inhibition at 12.5 µg/disc [35]: 25 mm; zone of inhibition at 25 µg/disc [36]: 15 mm
Cc1cc(SCc2nnc(-c3ccc([N+](=O)[O-])cc3)s2)nc(SCc2nnc(-c3ccc([N+](=O)[O-])cc3)s2)n1	12.5	31	22	24	35	29	22	50	100	50	200	16	33	200	28	27	26	6.25	35	32	Ratio [37]: 2; MIC [22]: 50 µg; zone of inhibition at 50 µg/disc [23]: 20 mm; zone of inhibition at 100 µg/disc [24]: 38 mm; zone of inhibition at 12.5 µg/disc [25]: 20 mm; zone of inhibition at 25 µg/disc [26]: 33 mm; MIC [27]: 50 µg; zone of inhibition at 100 µg/disc [28]: 23 mm; zone of inhibition at 25 µg/disc [29]: 31 mm; MBC [30]: 12.5 µg; zone of inhibition at 25 µg/disc [31]: 24 mm; MIC [32]: 12.5 µg; zone of inhibition at 100 µg/disc [33]: 35 mm; zone of inhibition at 50 µg/disc [34]: 27 mm; zone of inhibition at 12.5 µg/disc [35]: 31 mm; zone of inhibition at 25 µg/disc [36]: 18 mm
